# Assay results: patent US20250051300A1, “GRAM-NEGATIVE SPECIFIC ANTIBIOTICS SPARING EFFECT ON GUT MICROBIOME” (THE BOARD OF TRUSTEES OF THE UNIVERSITY OF ILLINOIS, priority 2021, published 2025)
# Like-named read-outs stand apart in the source and are kept apart here.
# How the values were obtained:
# Escherichia coli = test: MIC, micro-dilution broth method (CLSI); type: cell-based
# Klebsiella pneumoniae = test: MIC, micro-dilution broth method (CLSI); type: cell-based
# Enterobacter cloacae = test: MIC, micro-dilution broth method (CLSI); type: cell-based
# [1] = tested on: Stenotrophomonas maltophilia; test: MIC, gut commensal bacteria, micro-dilution broth; details: Stenotrophomonas maltophilia, ATCC13637
# [2] = tested on: Bacteroides cellulosilyticus; test: MIC, gut commensal bacteria, micro-dilution broth; details: Bacteroides cellulosilyticus
# gut microbiome = test: Impact on murine fecal microbiome (16S rRNA sequencing); details: oral gavage twice a day for three days; feces at days 0, 7, 10, 31
# Morganella morganii = test: MIC, gut commensal bacteria, micro-dilution broth; details: ATCC25839
# Proteus mirabilis = test: MIC, gut commensal bacteria, micro-dilution broth; details: Proteus mirabilis, ATCC35659
# Enterococcus faecalis = test: MIC, micro-dilution broth method (CLSI); type: cell-based; details: Enterococcus faecalis KLE 2341, BHI-ych; read-out: MIC
# Bacteroides fragilis = test: MIC, gut commensal bacteria, micro-dilution broth; details: Bacteroides fragilis, ATCC25285
# [3] = tested on: Streptococcus parasanguinis; test: MIC, gut commensal bacteria, micro-dilution broth; details: Streptococcus parasanguinis
# [4] = tested on: Faecalibacterium prausnitzii; test: MIC, gut commensal bacteria, micro-dilution broth; details: Faecalibacterium prausnitzii, ATCC27768
# Streptococcus salivarius = test: MIC, gut commensal bacteria, micro-dilution broth; details: Streptococcus salivarius
# Blautia producta = test: MIC, gut commensal bacteria, micro-dilution broth; details: Blautia producta, ATCC27340
# Bacteroides vulgatus = test: MIC, gut commensal bacteria, micro-dilution broth; details: Phocaeicola vulgatus
# Lactobacillus reuteri = test: MIC, gut commensal bacteria, micro-dilution broth; details: Limosilactobacillus reuteri, ATCC23272
# Bifidobacterium longum = test: MIC, gut commensal bacteria, micro-dilution broth; details: Bifidobacterium longum, ATCCBAA999
compound,measurement,setting,value
Colistin,MIC,Escherichia coli; E. coli AR0048,0.5 µg/mL
same,MIC,Escherichia coli; E. coli AR0055,1 µg/mL
same,MIC,Escherichia coli; E. coli AR0058,0.5 µg/mL
same,MIC,Escherichia coli; E. coli AR0061,0.5 µg/mL
same,MIC,Escherichia coli; E. coli AR0067,1 µg/mL
same,MIC,Escherichia coli; E. coli AR0069,0.5 µg/mL
same,MIC,Escherichia coli; E. coli AR0077,0.5 µg/mL
same,MIC,Escherichia coli; E. coli AR0081,0.5 µg/mL
same,MIC,Escherichia coli; E. coli AR0084,0.5 µg/mL
same,MIC,Escherichia coli; E. coli AR0085,0.5 µg/mL
same,MIC,Escherichia coli; E. coli AR0086,0.5 µg/mL
same,MIC,Escherichia coli; E. coli AR0089,0.5 µg/mL
same,MIC,Escherichia coli; E. coli AR0104,0.5 µg/mL
same,MIC,Escherichia coli; E. coli AR0114,0.25 µg/mL
same,MIC,Escherichia coli; E. coli AR0118,0.5 µg/mL
same,MIC,Escherichia coli; E. coli AR0119,0.5 µg/mL
same,MIC,Escherichia coli; E. coli AR0128,0.5 µg/mL
same,MIC,Escherichia coli; E. coli AR0137,1 µg/mL
same,MIC,Escherichia coli; E. coli AR0149,0.5 µg/mL
same,MIC,Escherichia coli; E. coli AR0150,0.5 µg/mL
same,MIC,Escherichia coli; E. coli AR0151,0.5 µg/mL
same,MIC,Escherichia coli; E. coli AR0162,0.5 µg/mL
same,MIC,Escherichia coli; E. coli AR0346,4 µg/mL
same,MIC,Escherichia coli; E. coli AR0348,0.25 µg/mL
same,MIC,Escherichia coli; E. coli AR0350,4 µg/mL
same,MIC,Escherichia coli; E. coli AR0493,8 µg/mL
same,MIC,Escherichia coli; E. coli AR0494,8 µg/mL
same,MIC,Escherichia coli; E. coli AR0495,4 µg/mL
same,MIC,Escherichia coli; E. coli AR0541,0.5 µg/mL
same,MIC,Escherichia coli; E. coli AR0543,0.5 µg/mL
same,MIC,Escherichia coli; E. coli AR0546,0.5 µg/mL
same,MIC,Escherichia coli; E. coli AR0551,0.5 µg/mL
same,MIC,Escherichia coli; E. coli AR0559,0.5 µg/mL
same,MIC,Escherichia coli; E. coli AR-0349 (colistin-resistant clinical isolate),8 µg/mL
same,MIC,Escherichia coli; E. coli AR-0549,0.25 µg/mL
same,MIC,Escherichia coli; E. coli ATCC BAA-2340,0.25 µg/mL
same,MIC,Escherichia coli; E. coli ATCC BAA-2469,0.25 µg/mL
same,MIC,Escherichia coli; E. coli ATCC BAA-2471,0.25 µg/mL
same,MIC,Escherichia coli; E. coli ELZ 4004,0.25 µg/mL
same,MIC,Escherichia coli; E. coli ELZ 4017,0.25 µg/mL
same,MIC,Escherichia coli; E. coli ELZ 4042,0.25 µg/mL
same,MIC,Escherichia coli; E. coli ELZ 4072,0.25 µg/mL
same,MIC,Escherichia coli; E. coli ELZ 4081,0.25 µg/mL
same,MIC,Escherichia coli; E. coli ELZ 4139,0.25 µg/mL
same,MIC,Escherichia coli; E. coli ELZ 4239,0.25 µg/mL
same,MIC,Escherichia coli; E. coli ELZ 4277,0.25 µg/mL
same,MIC,Escherichia coli; E. coli ELZ 4346,0.25 µg/mL
same,MIC,Klebsiella pneumoniae; K. pneumoniae AR0034,0.5 µg/mL
same,MIC,Klebsiella pneumoniae; K. pneumoniae AR0039,0.5 µg/mL
same,MIC,Klebsiella pneumoniae; K. pneumoniae AR0041,0.5 µg/mL
same,MIC,Klebsiella pneumoniae; K. pneumoniae AR0042,0.5 µg/mL
same,MIC,Klebsiella pneumoniae; K. pneumoniae AR0043,0.5 µg/mL
same,MIC,Klebsiella pneumoniae; K. pneumoniae AR0044,0.5 µg/mL
same,MIC,Klebsiella pneumoniae; K. pneumoniae AR0046,4 µg/mL
same,MIC,Klebsiella pneumoniae; K. pneumoniae AR0047,4 µg/mL
same,MIC,Klebsiella pneumoniae; K. pneumoniae AR0049,0.5 µg/mL
same,MIC,Klebsiella pneumoniae; K. pneumoniae AR0066,1 µg/mL
same,MIC,Klebsiella pneumoniae; K. pneumoniae AR0068,0.5 µg/mL
same,MIC,Klebsiella pneumoniae; K. pneumoniae AR0075,0.5 µg/mL
same,MIC,Klebsiella pneumoniae; K. pneumoniae AR0076,0.5 µg/mL
same,MIC,Klebsiella pneumoniae; K. pneumoniae AR0079,0.5 µg/mL
same,MIC,Klebsiella pneumoniae; K. pneumoniae AR0080,0.5 µg/mL
same,MIC,Klebsiella pneumoniae; K. pneumoniae AR0087,4 µg/mL
same,MIC,Klebsiella pneumoniae; K. pneumoniae AR0098,<0.25 µg/mL
same,MIC,Klebsiella pneumoniae; K. pneumoniae AR0106,4 µg/mL
same,MIC,Klebsiella pneumoniae; K. pneumoniae AR0107,<0.25 µg/mL
same,MIC,Klebsiella pneumoniae; K. pneumoniae AR0109,>8 µg/mL
same,MIC,Klebsiella pneumoniae; K. pneumoniae AR0112,0.5 µg/mL
same,MIC,Klebsiella pneumoniae; K. pneumoniae AR0113,0.5 µg/mL
same,MIC,Klebsiella pneumoniae; K. pneumoniae AR0115,0.5 µg/mL
same,MIC,Klebsiella pneumoniae; K. pneumoniae AR0117,1 µg/mL
same,MIC,Klebsiella pneumoniae; K. pneumoniae AR0120,0.5 µg/mL
same,MIC,Klebsiella pneumoniae; K. pneumoniae AR0125,>4 µg/mL
same,MIC,Klebsiella pneumoniae; K. pneumoniae AR0126,0.5 µg/mL
same,MIC,Klebsiella pneumoniae; K. pneumoniae AR0129,0.5 µg/mL
same,MIC,Klebsiella pneumoniae; K. pneumoniae AR0135,0.5 µg/mL
same,MIC,Klebsiella pneumoniae; K. pneumoniae AR0138,2 µg/mL
same,MIC,Klebsiella pneumoniae; K. pneumoniae AR0139,2 µg/mL
same,MIC,Klebsiella pneumoniae; K. pneumoniae AR0140,0.5 µg/mL
same,MIC,Klebsiella pneumoniae; K. pneumoniae AR0141,1 µg/mL
same,MIC,Klebsiella pneumoniae; K. pneumoniae AR0142,0.5 µg/mL
same,MIC,Klebsiella pneumoniae; K. pneumoniae AR0143,1 µg/mL
same,MIC,Klebsiella pneumoniae; K. pneumoniae AR0145,0.5 µg/mL
same,MIC,Klebsiella pneumoniae; K. pneumoniae AR0146,0.5 µg/mL
same,MIC,Klebsiella pneumoniae; K. pneumoniae AR0148,1 µg/mL
same,MIC,Klebsiella pneumoniae; K. pneumoniae AR0152,0.5 µg/mL
same,MIC,Klebsiella pneumoniae; K. pneumoniae AR0153,0.5 µg/mL
same,MIC,Klebsiella pneumoniae; K. pneumoniae AR0158,0.5 µg/mL
same,MIC,Klebsiella pneumoniae; K. pneumoniae AR0160,1 µg/mL
same,MIC,Klebsiella pneumoniae; K. pneumoniae AR0347,<0.25 µg/mL
same,MIC,Klebsiella pneumoniae; K. pneumoniae AR0542,>8 µg/mL
same,MIC,Klebsiella pneumoniae; K. pneumoniae AR0548,0.5 µg/mL
same,MIC,Klebsiella pneumoniae; K. pneumoniae AR0550,<0.25 µg/mL
same,MIC,Klebsiella pneumoniae; K. pneumoniae AR0552,0.5 µg/mL
same,MIC,Klebsiella pneumoniae; K. pneumoniae AR0553,0.5 µg/mL
same,MIC,Klebsiella pneumoniae; K. pneumoniae AR0554,0.5 µg/mL
same,MIC,Klebsiella pneumoniae; K. pneumoniae AR0555,0.5 µg/mL
same,MIC,Klebsiella pneumoniae; K. pneumoniae AR-0040,8 µg/mL
same,MIC,Enterobacter cloacae; E. cloacae AR0032,0.5 µg/mL
same,MIC,Enterobacter cloacae; E. cloacae AR0038,0.5 µg/mL
same,MIC,Enterobacter cloacae; E. cloacae AR0050,0.25 µg/mL
same,MIC,Enterobacter cloacae; E. cloacae AR0053,0.5 µg/mL
same,MIC,Enterobacter cloacae; E. cloacae AR0060,0.5 µg/mL
same,MIC,Enterobacter cloacae; E. cloacae AR0065,0.5 µg/mL
same,MIC,Enterobacter cloacae; E. cloacae AR0072,1 µg/mL
same,MIC,Enterobacter cloacae; E. cloacae AR0073,8 µg/mL
same,MIC,Enterobacter cloacae; E. cloacae AR0093,0.5 µg/mL
same,MIC,Enterobacter cloacae; E. cloacae AR0132,1 µg/mL
same,MIC,Enterobacter cloacae; E. cloacae AR0136,0.5 µg/mL
same,MIC,Enterobacter cloacae; E. cloacae AR0154,0.5 µg/mL
same,MIC,Enterobacter cloacae; E. cloacae AR0164,0.5 µg/mL
same,MIC,Enterobacter cloacae; E. cloacae AR0544,0.25 µg/mL
same,MIC,Enterobacter cloacae; E. cloacae AR0545,0.5 µg/mL
same,MIC,Enterobacter cloacae; E. cloacae AR-0163,16 µg/mL
same,MIC,Enterobacter cloacae; E. cloacae ATCC BAA-2341,0.5 µg/mL
same,MIC,Enterobacter cloacae; E. cloacae ATCC BAA-2468,0.25 µg/mL
CCC[C@@H]1C[C@@H](C(=O)N[C@@H]([C@H]2O[C@H](SC)[C@H](O)[C@@H](O)[C@H]2O)[C@H](C)Cl)N(C)C1 [Clindamycin],MIC,[1],0.5 µg/mL
same,MIC,[2],> 128 µg/mL
same,effect on gut microbiome taxonomic composition,gut microbiome,large decreases in the members of Bacilli and Bacteroidia
same,MIC,Morganella morganii,> 128 µg/mL
same,MIC,Proteus mirabilis,0.125 µg/mL
same,MIC,Enterococcus faecalis,1 µg/mL
same,MIC,Bacteroides fragilis,4 µg/mL
same,MIC,[3],0.06 µg/mL
same,MIC,[4],0.25 µg/mL
same,MIC,Streptococcus salivarius,2 µg/mL
same,MIC,Blautia producta,1 µg/mL
same,MIC,Bacteroides vulgatus,16 µg/mL
same,MIC,Lactobacillus reuteri,0.25 µg/mL
same,MIC,Bifidobacterium longum,0.5 µg/mL
CC1(C)S[C@@H]2[C@H](NC(=O)[C@H](N)c3ccc(O)cc3)C(=O)N2[C@H]1C(=O)O [Amoxicillin],MIC,[1],> 128 µg/mL
same,MIC,[2],> 128 µg/mL
same,effect on gut microbiome taxonomic composition,gut microbiome,increases in members of Bacteroidia
same,MIC,Morganella morganii,32 µg/mL
same,MIC,Proteus mirabilis,0.008 µg/mL
same,MIC,Enterococcus faecalis,0.25 µg/mL
same,MIC,Bacteroides fragilis,128 µg/mL
same,MIC,[3],64 µg/mL
same,MIC,[4],64 µg/mL
same,MIC,Streptococcus salivarius,0.125 µg/mL
same,MIC,Blautia producta,1 µg/mL
same,MIC,Bacteroides vulgatus,2 µg/mL
same,MIC,Lactobacillus reuteri,1 µg/mL
same,MIC,Bifidobacterium longum,1 µg/mL
"Cc1cc(-c2nc(C(C)(C)C)[nH]c2-c2ccc3c(c2)OCCO3)ccn1 [Compound 1, 4-(2-(tert-butyl)-5-(2,3-dihydrobenzo[b][1,4]dioxin-6-yl)-1H-imidazol-4-yl)-2-methylpyridine]",MIC,"Escherichia coli; Escherichia coli, ATCC25922, E. coli ATCC 25922, read-out: MIC",8 µg/mL
same,MIC,"Escherichia coli; Escherichia coli, E. coli AR-0549, read-out: MIC",16 µg/mL
same,MIC,"Escherichia coli; Escherichia coli, E. coli ΔrfaC JW3596 (permeability mutant)",0.25 µg/mL
same,MIC,"Escherichia coli; Escherichia coli, E. coli ΔtolC JW5503 (efflux-deficient)",0.03 µg/mL
same,MIC,"Klebsiella pneumoniae; Klebsiella pneumoniae, ATCC27736, K. pneumoniae ATCC 27736, read-out: MIC",16 µg/mL
same,MIC,"Klebsiella pneumoniae; Klebsiella pneumoniae, ATCCBAA1705, K. pneumoniae ATCC BAA-1705, read-out: MIC",> 128 µg/mL
same,MIC,"Klebsiella pneumoniae; Klebsiella pneumoniae, K. pneumoniae AR-0040, read-out: MIC",32 µg/mL
same,MIC,"Enterobacter cloacae; Enterobacter cloacae, ATCC29893, E. cloacae ATCC 29893, read-out: MIC",> 128 µg/mL
same,MIC,"Enterobacter cloacae; Enterobacter cloacae, ATCCBAA2468, E. cloacae ATCC BAA-2468, read-out: MIC",32 µg/mL
same,MIC,"Enterobacter cloacae; Enterobacter cloacae, E. cloacae AR-0163, read-out: MIC",64 µg/mL
